Results on 5 compounds are retold here after the NIST ThermoML archive (doi:10.1021/acs.jced.8b01200).

Numbers after ± are expanded uncertainties.

For series [1] the following is noted: Crystal; DSC.
Series [2] can be described thus: Molar enthalpy of transition or fusion. The note with it: Crystal; DSC.

Consider `CCCCCCCCCCCCCCCC(=O)OCC(COC(=O)CCCCCCCCCCCCCCC)OC(=O)CCCCCCCCCCCCCCC` [1,2,3-propanetriyl tri(hexadecanoate)], for which the Triple point temperature in series [1] is listed as 336.8 ± 1.4 K. Further, the “Molar enthalpy of transition or fusion” value in series [2] was found to be 37.9 ± 0.789 kcal/mol.

Turning to `CCCCCCCCCCCCCC(=O)OCC(COC(=O)CCCCCCCCCCCCC)OC(=O)CCCCCCCCCCCCC` [1,2,3-propanetriyl tri(tetradecanoate)], the Triple point temperature in series [1] worked out at 329.4 ± 1.4 K. The “Molar enthalpy of transition or fusion” value in series [2] was found to be 34.5 ± 0.741 kcal/mol.

As to `Cc1ccc(C(C)C)c(O)c1` [3-methyl-6-isopropylphenol], in series [1], the Triple point temperature stood at 321.9 ± 1.4 K. For the same compound, the “Molar enthalpy of transition or fusion” value in series [2] stood at 3.11 ± 0.502 kcal/mol.

In the case of `CC(C)[C@@H]1CC[C@@H](C)C[C@H]1O` [L-menthol], the Triple point temperature in series [1] was found to be 314.4 ± 2.4 K. Moreover, in series [2], the “Molar enthalpy of transition or fusion” value was determined as 2.85 ± 0.454 kcal/mol.

For `CCCCCCCCCCCCCCCCCC(=O)OCC(COC(=O)CCCCCCCCCCCCCCCCC)OC(=O)CCCCCCCCCCCCCCCCC` [glycerol trioctadecanoate], the Triple point temperature in series [1] is 343.8 ± 1.4 K. In series [2], the “Molar enthalpy of transition or fusion” value came to 44 ± 0.884 kcal/mol.
